Test results: patent US5049372A, “Anticancer activities in a host by increasing blood and plasma adenosine 5'-triphosphate (ATP) levels” (priority 1988, dated 1991)

What was measured:
CT26 tumors [1] = assay: Arrest of growth of CT26 tumors in CB6F1 mice (Table 2); assay type: in vivo, mouse; settings: experiment 1; CB6F1, 10 F; 0.5 × 10^4 cells; 5 weeks; 1 ml of 50 mM i.p.
Method: (§1) The tumor cell lines employed were CT26, a mouse undifferentiated, aggressive colon carcinoma, and CAPAN-1, a well-differentiated human pancreatic adenocarcinoma. […] The cells are shown to be free of Mycoplasma contamination. Cells are cultured at 37° C. in a humidified atmosphere of 5% CO2 /95% air in MEM supplemented with antibiotics (100 units of penicillin per ml and 100 μg streptomycin per ml), L-glutamine (2 mM), non-essential amino acids (0.1 mM), sodium pyruvate (1 mM), and 10% fetal bovine serum.
In the tests, females and males CB6F1 mice (a standard F1 hybrid of BALB/C and C57BL/6) obtained from Jackson Laboratories, Bar Harbor, Maine and athymic outbred NCr nu/nu mice (males and females) from the Department of Radiation Medicine, Massachusetts General Hospital, Boston, Mass. 02114 are used. All the mice are kept for at least two weeks before inoculation of the tumors and the start of treatment and are 7-9 weeks old (CB6F1) or 6-7 weeks old (athymic nu/nu) at the start of the procedure. Animals weigh 20-25 g (females) or 23-28 g (males), are housed 5-12 per cage, and have ad libitum access to food and water. […]
Injections are administered with 30 gauge needles and the mice are lightly anesthetized with ether. […] After the tumors become palpable, tumor sizes are determined every three days. […]

[2] = Host toxicity (deaths, body weight) in treated mice; assay type: in vivo, mouse; settings: for Deaths: i.p. injections of adenine nucleotides
Method: (§2) Tumor cells are removed from subconfluent cultures by a mild trypsin-EDTA treatment, the cell pellet is washed once with MEM without serum and the cells are suspended at the desired cell numbers in PBS (phosphate-bufferedsaline, 8 g NaCl, 0.2 g KCl, 1.15 g Na2 HPO4.7H2 O, and 0.2 g KH2 PO4 per liter). Cell suspensions are shown to be at least 90% viable by trypan blue exclusion. Mice are injected subcutaneously in the right hind footpad with tumor cells suspended in 50 μl of PBS. The regular protocol (unless otherwise stated) consists of daily i.p. injections of 1 ml of 0.85% NaCl solution or 1 ml of 50 mM of AMP, ADP, or ATP in 0.85% NaCl (from stock solutions adjusted to pH 6.2) starting one day after tumor inoculation and given for ten consecutive days.
(§3) Injections are administered with 30 gauge needles and the mice are lightly anesthetized with ether. The mice are weighed before the start of treatment and once a week during and after treatment. After the tumors become palpable, tumor sizes are determined every three days. The animals are sacrificed, tumors are excised and weighed before they reach 10% of the animals' weight.

CT26 tumors [3] = assay: Growth inhibition of s.c. footpad CT26 tumors in CB6F1 mice by daily i.p. adenine nucleotides (Table 1); assay type: in vivo, mouse; settings: for Effectiveness of concentrations lower than 50 mM against CT26 footpad tumors: daily i.p. in volumes of 1.4-1.8 ml of saline, CB6F1 mice; for Effect of delaying start of treatment on tumor growth inhibition: start delayed until tumors palpable (6-10 days after inoculation); for Inhibition of tumor growth (% of saline-treated): 1 ml of 25 mM, based on tumor weights
Method: as §1
In the tests, females and males CB6F1 mice (a standard F1 hybrid of BALB/C and C57BL/6) obtained from Jackson Laboratories, Bar Harbor, Maine and athymic outbred NCr nu/nu mice (males and females) from the Department of Radiation Medicine, Massachusetts General Hospital, Boston, Mass. 02114 are used. All the mice are kept for at least two weeks before inoculation of the tumors and the start of treatment and are 7-9 weeks old (CB6F1) or 6-7 weeks old (athymic nu/nu) at the start of the procedure. Animals weigh 20-25 g (females) or 23-28 g (males), are housed 5-12 per cage, and have ad libitum access to food and water.
as §2, §3
The growth inhibitory properties of adenine nucleotides against CT26 murine colon carcinoma, which are inoculated s.c. in the hind footpad of CB6F1 mice, are illustrated in Table 1 hereinbelow. […] No significant differences between males and females are observed either in the rate of tumor growth or in the tumor's response to adenine nucleotides treatment.

RBC ATP pools = assay: Stability of expanded RBC ATP pools in washed isolated RBCs in vitro after i.p. injection (Table 5); parameters: species or system mouse; settings: average of two experiments; for Medium (Hanks' BSS) [^3 H]ATP levels immediately after [^3 H]adenosine incorporation into isolated, washed RBCs (at time 0) / ATP levels in the medium (Hanks' BSS): time 0; for ATP levels in the medium (Hanks' BSS): bioluminometry; for RBC ATP pools (37° C.), 0 min / RBC ATP pools (37° C.), 120 min: washed RBCs in Hanks' BSS
Method: The mice are anesthetized with ether during the procedure. Plasma or Hanks' (Balanced Salt Solution) BSS media from incubated isolated RBCs (Red Blood Cells) are prepared by centrifugation of whole blood or RBCs in a Beckman microfuge (30 seconds at 8000 xg) and samples of 100 μl are added to 1 ml of ice-cold 7% trichloroacetic acid. Red blood cells are prepared by centrifugation of whole blood (1500 xg for 5 minutes at 4° C.) and removal of plasma and the buffy coat is followed by a wash of the pelleted RBCs (from 250 μl of whole blood) in 5 ml of ice-cold Hanks' BSS. After centrifugations, the RBCs pellet is resuspended in Hanks' BSS to yield a total volume with the original hematocrit (percent of RBCs volume in the whole blood). Aliquots of 20 μl of RBCs suspensions or whole blood are added to 1 ml of ice-cold 7% trichloroacetic acid. Extraction of acid-soluble nucleotides and determinations of ATP levels by luminometry followed procedures discussed hereinabove. Levels of [^3 H]ATP in whole blood, RBCs, plasma, or RBCs incubation media (Hanks' BSS) are determined after incorporation of 250 μCi of [^3 H]adenosine of specific radioactivity of 30 Ci/mmol (1 Ci=3.7×10^10 becquerels) into whole blood or RBC suspensions (250 μl total) followed by immediate trichloroacetic acid extractions as described above. Two dimensional thin layer chromatography on poly(ethylene)imine cellulose with an unlabeled ATP carrier is performed according to Bochner and Ames, J. Biol. Chem., 257, pp. 9759-9769, 1982). For the determination of whole blood or isolated RBC [^3 H]ATP pools, 10 μl of a 1 ml initial trichloroacetic acid extract are chromatographed. Determinations of [^3 H]ATP levels in blood plasma or RBCs incubation media are performed on 300 μl of an initial 1 ml trichloroacetic acid extract which are lyophilized and redissolved in 15 μl of water. After chromatography, the spots corresponding to the ATP carrier are cut, eluted with 0.5 ml of 4 N ammonium hydroxide, and radioactivity determined in 10 ml of scintillation fluid.
Two hour incubations of washed isolated RBCs containing normal or expanded ATP pools in Hanks' BSS result in relatively small decreases in RBC ATP pools with the expanded pools being maintained well above normal levels (Table 5). The expansions of RBC ATP pools after i.p. administration of AMP or ATP in vivo is presumably the result of their dephosphorylation followed by the RBCs uptake of the adenosine which is generated in situ.

[4] = ATP levels in mouse blood (total cellular) and plasma after i.p. injection (Table 3); assay type: in vivo; settings: for Blood ATP levels: total cellular
Method: The mice are anesthetized with ether during the procedure. The plasma is prepared by immediate centrifugation of the blood in a Beckman microfuge (30 sec at 8000 xg). Blood (20 μl) or plasma (100 μl) aliquots are added to 1 ml of cold 7% trichloroacetic acid. […] The determination of ATP levels in the extracts is performed by bioluminometry (luciferinluciferase) using a Turner Designs Bioluminescence Photometer.

[5] = experiment 3, 12 M per group, 0.5 × 10^6 cells, day 13, 1 ml of 50 mM i.p. daily
[6] = experiment 4, 11 F per group, 0.5 × 10^6 cells, day 14, 1 ml of 50 mM i.p. daily
[7] = experiment 5, 12 F per group, 0.5 × 10^5 cells, day 16, 1 ml of 50 mM i.p. daily
[8] = experiment 6, 10 F per group, 0.5 × 10^5 cells, day 18, 1 ml of 50 mM i.p. daily (Ap4A 10 mM)
[9] = experiment 7, 10 F per group, 0.1 × 10^5 cells, day 22, 1 ml of 50 mM i.p. daily
[10] = experiment 7, 10 F per group, 0.1 × 10^5 cells, day 22, 1 ml of 50 mM i.p. daily, included one complete cure
[11] = CB6F1, 1 hour after i.p. 1 ml of 50 mM
[12] = CB6F1, 5 hours after i.p. 1 ml of 50 mM
[13] = athymic nu/nu, 1 hour after i.p. 1 ml of 50 mM
[14] = athymic nu/nu, 4 hours after i.p. 1 ml of 50 mM
[15] = experiment 1, 10 F per group, 0.5 × 10^6 cells, day 15, 1 ml of 25 mM i.p. daily
[16] = experiment 2, 10 M per group, 0.5 × 10^6 cells, day 15, 1 ml of 25 mM i.p. daily

Structure (SMILES) | Arrested tumors/implanted tumors (CT26 tumors [1]) | Deaths [2] | Effectiveness of concentrations lower than 50 mM against CT26 footpad tumors (CT26 tumors [3]) | Tumor diameter (CT26 tumors [3]; [5]) [cm] | Tumor weight (CT26 tumors [3]; [5]) [g] | Tumor diameter (CT26 tumors [3]; [6]) [cm] | Tumor weight (CT26 tumors [3]; [6]) [g] | Tumor diameter (CT26 tumors [3]; [7]) [cm] | Tumor weight (CT26 tumors [3]; [7]) [g] | Tumor diameter (CT26 tumors [3]; [8]) [cm] | Tumor weight (CT26 tumors [3]; [8]) [g] | Tumor diameter (CT26 tumors [3]; [9]) [cm] | Tumor weight (CT26 tumors [3]; [10]) [g] | Most effective pH of the i.p. solution for inhibition of tumor growth (CT26 tumors [3]) | Effect of delaying start of treatment on tumor growth inhibition (CT26 tumors [3]) | Medium (Hanks' BSS) [^3 H]ATP levels immediately after [^3 H]adenosine incorporation into isolated, washed RBCs (at time 0) (RBC ATP pools) [µM] | ATP levels in the medium (Hanks' BSS) (RBC ATP pools) [µM] | RBC ATP pools (37° C.), 0 min (RBC ATP pools) [mM] | RBC ATP pools (37° C.), 120 min (RBC ATP pools) [mM] | Plasma ATP levels [4, 11] [µM] | further results
Nc1ncnc2c1ncn2[C@@H]1O[C@H](COP(=O)(O)O)[C@@H](O)[C@H]1O [AMP, adenosine 5'-monophosphate] | 2/10 | did not cause any deaths | as effective | 1.2 ± 0.2 | 0.65 ± 0.21 | 1.0 ± 0.3 | 0.88 ± 0.31 | 0.6 ± 0.2 | 0.41 ± 0.18 | 0.8 ± 0.2 | 0.56 ± 0.21 | 0.9 ± 0.5 | 0.51 ± 0.28 | 5.5-6.2 | without any significant effects on the magnitude of tumor growth inhibition | 1.81 | 2.42 | 1.01 | 0.86 | 1.75 ± 0.36 | Side-effects relative to ATP ([2]; host animals): less side-effects than ATP; Blood ATP levels [4, 11]: 1.23 ± 0.21 mM; Plasma ATP levels [4, 12]: 1.69 ± 0.19 µM; Blood ATP levels [4, 12]: 1.36 ± 0.24 mM; Plasma ATP levels [4, 13]: 2.17 ± 0.36 µM; Blood ATP levels [4, 13]: 1.87 ± 0.46 mM; Plasma ATP levels [4, 14]: 1.97 ± 0.41 µM; Blood ATP levels [4, 14]: 2.35 ± 0.67 mM
Nc1ncnc2c1ncn2[C@@H]1O[C@H](COP(=O)(O)OP(=O)(O)OP(=O)(O)O)[C@@H](O)[C@H]1O [ATP, adenosine 5'-triphosphate] | 4/10 | Occasionally, an animal treated with ATP or ADP would die a few hours after injection | as effective | 1.2 ± 0.2 | 0.70 ± 0.18 | 1.0 ± 0.2 | 0.84 ± 0.23 | 0.5 ± 0.1 | 0.38 ± 0.10 | 0.8 ± 0.1 | 0.51 ± 0.18 | 0.9 ± 0.5 | 0.68 ± 0.36 | 5.5-6.2 | without any significant effects on the magnitude of tumor growth inhibition | 4.93 | 4.08 | 2.52 | 1.76 | 3.99 ± 0.81 | Tumor diameter (CT26 tumors [3]; [15]): 1.3 ± 0.2 cm; Tumor weight (CT26 tumors [3]; [15]): 1.34 ± 0.33 g; Inhibition of tumor growth (% of saline-treated) (CT26 tumors [3]; experiment 1, 10 F per group, 0.5 × 10^6 cells, day 15): 31%; Tumor diameter (CT26 tumors [3]; [16]): 1.4 ± 0.2 cm; Tumor weight (CT26 tumors [3]; [16]): 1.30 ± 0.29 g; Inhibition of tumor growth (% of saline-treated) (CT26 tumors [3]; experiment 2, 10 M per group, 0.5 × 10^6 cells, day 15): 30%; Blood ATP levels [4, 11]: 2.53 ± 0.61 mM; Plasma ATP levels [4, 12]: 5.14 ± 0.71 µM; Blood ATP levels [4, 12]: 3.47 ± 0.57 mM; Plasma ATP levels [4, 13]: 2.93 ± 0.69 µM; Blood ATP levels [4, 13]: 2.71 ± 0.54 mM; Plasma ATP levels [4, 14]: 3.01 ± 0.76 µM; Blood ATP levels [4, 14]: 4.26 ± 0.79 mM
